Measurements reported in ChEMBL document CHEMBL1136579, “Determination of active components in rhubarb and study of their hydrophobicity by micellar electrokinetic chromatography” (Bioorg Med Chem Lett, 2003).

experiment: Partition coefficient of compound in octanol and water by Fragmental method of Leo/Hansch; assay type: physicochemical

| logP | SMILES |
| --- | --- |
| 3.65 | COc1cc(O)c2c(c1)C(=O)c1cc(C)cc(O)c1C2=O [PHYSCION] |
| 2.37 | O=C(O)c1cc(O)c2c(c1)C(=O)c1cccc(O)c1C2=O [RHEIN] |
| 3.39 | Cc1cc(O)c2c(c1)C(=O)c1cccc(O)c1C2=O [CHRYSOPHANOL] |

| SMILES | logP |
| --- | --- |
| Cc1cc(O)c2c(c1)C(=O)c1cc(O)cc(O)c1C2=O [EMODIN] | 2.87 |
| O=C1c2cccc(O)c2C(=O)c2c(O)cc(CO)cc21 [ALOE-EMODIN] | 2.62 |
